Experiment: IV and PO single dose pharmacokinetic studies in SD rats
Format: in vivo
Conditions: Sprague-Dawley, rat, plasma, comparative table, male SD rats, oral 20 mg/kg vs IV
Experimental: The pharmacokinetics of selected compounds was characterized in male Sprague-Dawley (SD) rats (250-300 g). […] The intravenous (IV) dosing vehicle was 5% ethanol and 95% of 20% 2-hydroxypropyl β-cyclodextrin in water. The oral dosing vehicle was 33% of Microemulsion Preconcentrate #5 (a lipid based self-emulsifying drug delivery system, SEDDS) and 67% of 50 mM citrate buffer (final pH 3.6).
Serial blood samples (approximately 0.3 mL each) were collected from jugular vein or other suitable vein at specified time points. For the IV dosing group, the blood samples were collected predose and at 0.08, 0.25, 0.50, 1, 3, 6, 8, and 24 hours after the start of dosing. For the oral group, the blood samples were collected predose and at 0.08, 0.25, 0.50, 1, 3, 6, 8, and 24 hours after dosing. The blood samples were collected into VACUTAINER™ tubes containing EDTA-K3 as the anti-coagulant and were centrifuged at approximately 4° C. to obtain plasma. The plasma samples were stored at −20° C. until analysis by LC/MS/MS.
A bioanalytical method utilizing high performance liquid chromatography coupled to tandem mass spectrometry (LC/MS/MS) was developed for analysis of the selected compound in rat plasma. Detection was performed using multiple reaction monitoring (MRM); Ions representing the precursor (M+H)^+ species was selected in quadrupole 1 (Q1) and collided with nitrogen gas in the collision cell (Q2) to generate specific product ion, which was subsequently monitored by quadrupole 3 (Q3). Standard curve and quality control samples were prepared in male rat plasma and processed in the same way as the test samples to generate quantitative data.
Pharmacokinetic parameters were generated using non-compartmental pharmacokinetic analysis (Phoenix WinNonlin, version 6.3). Values below the lower limit of quantification (LLOQ) were assigned a value of zero if predose and treated as missing thereafter. Area under the curve (AUC) was calculated using the linear trapezoidal rule. The oral bioavailability (% F) was determined by comparison of the area under the curve (AUC) of the compound in plasma following oral administration to that generated following intravenous administration.

Molecule `COC(=O)N[C@H](C(=O)N1C[C@]2(CCCOC2)C[C@H]1c1ncc(-c2ccc(-c3ccc4c(ccc5nc([C@@H]6CCCN6C(=O)[C@@H](NC(=O)OC)C(C)C)[nH]c54)c3)cc2)[nH]1)C(C)C` [drawing 233] has a bioavailability of 7%.

Same assay, conditions: Sprague-Dawley, rat, plasma, male SD rats, oral gavage 20 mg/kg vs IV bolus 2 mg/kg

In order of rising bioavailability:
1. COC(=O)N[C@H](C(=O)N1C[C@]2(CCCOC2)C[C@H]1c1ncc(-c2ccc(-c3ccc4c(ccc5nc([C@@H]6C[C@@H]7COC[C@@H]7N6C(=O)[C@@H](NC(=O)OC)C(C)C)[nH]c54)c3)cc2)[nH]1)C(C)C [Compound 35]  1.1%
2. COC(=O)N[C@H](C(=O)N1CCC[C@H]1c1nc2ccc3cc(-c4ccc5c(ccc6nc([C@@H]7C[C@@]8(CCCOC8)CN7C(=O)[C@@H](NC(=O)OC)C(C)C)[nH]c65)c4)ccc3c2[nH]1)C(C)C [Compound 48]  1.7%
3. COC(=O)N[C@H](C(=O)N1C[C@]2(CCCOC2)C[C@H]1c1nc2ccc3cc(-c4ccc(-c5cnc([C@@H]6C[C@@H]7COC[C@@H]7N6C(=O)[C@@H](NC(=O)OC)C(C)C)[nH]5)cc4)ccc3c2[nH]1)C(C)C [Compound 34]  2.1%
4. COC(=O)N[C@H](C(=O)N1CC2(CC2)C[C@H]1c1nc2ccc3cc(-c4ccc5c(ccc6nc([C@@H]7C[C@@]8(CCCOC8)CN7C(=O)[C@@H](NC(=O)OC)C(C)C)[nH]c65)c4)ccc3c2[nH]1)C(C)C [Compound 7]  2.5%
5. COC(=O)N[C@H](C(=O)N1C[C@]2(CCCOC2)C[C@H]1c1nc2ccc3cc(-c4ccc5c(ccc6nc([C@@H]7C[C@@H]8CCC[C@@H]8N7C(=O)[C@@H](NC(=O)OC)C(C)C)[nH]c65)c4)ccc3c2[nH]1)C(C)C [Compound 9]  2.6%
6. COC(=O)N[C@H](C(=O)N1C[C@]2(CCCOC2)C[C@H]1c1ncc(-c2ccc(-c3ccc4c(ccc5nc([C@@H]6C[C@H]7C[C@H]7N6C(=O)[C@@H](NC(=O)OC)C(C)C)[nH]c54)c3)cc2)[nH]1)C(C)C [Compound 18]  3.3%
7. COC(=O)N[C@H](C(=O)N1C[C@]2(CCCOC2)C[C@H]1c1nc2ccc3cc(-c4ccc5c(ccc6nc([C@@H]7C[C@@H]8C[C@@H]8N7C(=O)[C@@H](NC(=O)OC)C(C)C)[nH]c65)c4)ccc3c2[nH]1)C(C)C [Compound 21]  3.4%
8. COC(=O)N[C@H](C(=O)N1C[C@]2(CCCOC2)C[C@H]1c1nc2ccc3cc(-c4ccc5c(ccc6nc([C@@H]7C[C@H]8C[C@H]8N7C(=O)[C@@H](NC(=O)OC)C(C)C)[nH]c65)c4)ccc3c2[nH]1)C(C)C [Compound 6]  3.5%
9. COC(=O)N[C@H](C(=O)N1C[C@]2(CCCOC2)C[C@H]1c1nc2ccc3cc(-c4ccc5c(ccc6nc([C@@H]7C[C@@]8(CCCOC8)CN7C(=O)[C@@H](NC(=O)OC)C(C)C)[nH]c65)c4)ccc3c2[nH]1)C(C)C [Compound 31]  3.8%
10. COC(=O)N[C@H](C(=O)N1CC2(CC2)C[C@H]1c1ncc(-c2ccc(-c3ccc4c(ccc5nc([C@@H]6C[C@@]7(CCCOC7)CN6C(=O)[C@@H](NC(=O)OC)C(C)C)[nH]c54)c3)cc2)[nH]1)C(C)C [Compound 8]  4.1%
11. COC(=O)N[C@H](C(=O)N1C[C@]2(CCCOC2)C[C@H]1c1nc2ccc3cc(-c4ccc5c(ccc6nc([C@@H]7C[C@@H]8CCCC[C@@H]8N7C(=O)[C@@H](NC(=O)OC)C(C)C)[nH]c65)c4)ccc3c2[nH]1)C(C)C [Compound 23]  5.5%
12. COC(=O)N[C@H](C(=O)N1C[C@]2(CCCOC2)C[C@H]1c1nc2ccc3cc(-c4ccc(-c5cnc([C@@H]6C[C@@H]7CCC[C@@H]7N6C(=O)[C@@H](NC(=O)OC)C(C)C)[nH]5)cc4)ccc3c2[nH]1)C(C)C [Compound 10]  5.7%
13. COC(=O)N[C@H](C(=O)N1C[C@]2(CCCOC2)C[C@H]1c1ncc(-c2ccc(-c3ccc4c(ccc5nc([C@@H]6CCCN6C(=O)[C@@H](NC(=O)OC)C(C)C)[nH]c54)c3)cc2)[nH]1)C(C)C [Compound 47]  7%
14. COC(=O)N[C@H](C(=O)N1C[C@]2(CCCOC2)C[C@H]1c1ncc(-c2ccc(-c3ccc4c(ccc5nc([C@@H]6C[C@@]7(CCCOC7)CN6C(=O)[C@@H](NC(=O)OC)C(C)C)[nH]c54)c3)cc2)[nH]1)C(C)C [Compound 11]  7.1%
15. COC(=O)N[C@H](C(=O)N1C[C@]2(CCCOC2)C[C@H]1c1ncc(-c2ccc(-c3ccc4c(ccc5nc([C@@H]6CC7(CC7)CN6C(=O)[C@@H](NC(=O)OC)C(C)C)[nH]c54)c3)cc2)[nH]1)C(C)C [Compound 28]  7.2%
16. COC(=O)N[C@H](C(=O)N1C[C@]2(CCCOC2)C[C@H]1c1nc2ccc3cc(-c4ccc(-c5cnc([C@@H]6C[C@@H]7CCCC[C@@H]7N6C(=O)[C@@H](NC(=O)OC)C(C)C)[nH]5)cc4)ccc3c2[nH]1)C(C)C [Compound 24]  7.9%
17. COC(=O)N[C@H](C(=O)N1CCC[C@H]1c1ncc(-c2ccc(-c3ccc4c(ccc5nc([C@@H]6C[C@]7(CCOC7)CN6C(=O)[C@@H](NC(=O)OC)C(C)C)[nH]c54)c3)cc2)[nH]1)C(C)C [Compound 51]  8.6%
18. COC(=O)N[C@H](C(=O)N1C[C@]2(CCCOC2)C[C@H]1c1nc2ccc3cc(-c4ccc(-c5cnc([C@@H]6C[C@@H]7C[C@@H]7N6C(=O)[C@@H](NC(=O)OC)C(C)C)[nH]5)cc4)ccc3c2[nH]1)C(C)C [Compound 22]  9.4%
19. COC(=O)N[C@H](C(=O)N1C[C@]2(CCCOC2)C[C@H]1c1nc2ccc3cc(-c4ccc(-c5cnc([C@@H]6C[C@H]7C[C@H]7N6C(=O)[C@@H](NC(=O)OC)C(C)C)[nH]5)cc4)ccc3c2[nH]1)C(C)C [Compound 5]  12.2%
20. COC(=O)N[C@H](C(=O)N1[C@H](c2nc3ccc4cc(-c5ccc(-c6cnc([C@@H]7C[C@@]8(CCCOC8)CN7C(=O)[C@@H](NC(=O)OC)C7C[C@@H](C)O[C@H](C)C7)[nH]6)cc5)ccc4c3[nH]2)C[C@@H]2CCCC[C@@H]21)C(C)C (stereo in doubt) [Compound 38]  12.4%
21. COC(=O)N[C@H](C(=O)N1CCC[C@H]1c1ncc(-c2ccc(-c3ccc4c(ccc5nc([C@@H]6C[C@@]7(CCCOC7)CN6C(=O)[C@@H](NC(=O)OC)C(C)C)[nH]c54)c3)cc2)[nH]1)C(C)C [Compound 44]  14.8%
22. COC(=O)N[C@H](C(=O)N1C[C@]2(CCCOC2)C[C@H]1c1ncc(-c2ccc(-c3ccc4c(ccc5nc([C@@H]6C[C@@H]7CCCC[C@@H]7N6C(=O)[C@@H](NC(=O)OC)C(C)C)[nH]c54)c3)cc2)[nH]1)C(C)C [Compound 29]  17.1%
23. COC(=O)N[C@H](C(=O)N1C[C@]2(CCCOC2)C[C@H]1c1ncc(-c2ccc(-c3ccc(-c4cnc([C@@H]5C[C@@H]6CCCC[C@@H]6N5C(=O)[C@@H](NC(=O)OC)C(C)C)[nH]4)cc3)cc2)[nH]1)C(C)C [Compound 32]  24.1%
24. COC(=O)N[C@H](C(=O)N1C[C@]2(CCCOC2)C[C@H]1c1ncc(-c2ccc(-c3ccc(-c4cnc([C@@H]5C[C@@H]6CCC[C@@H]6N5C(=O)[C@@H](NC(=O)OC)C(C)C)[nH]4)cc3)cc2)[nH]1)C(C)C [Compound 37]  114%
